Key:
Format in all cases: physicochemical
[1] = Solubility: EDDS content of a saturated solution in water; details: room temperature, stirred overnight, as free EDDS, ignoring counter ion
Procedure: The solubility of each sample was measured as follows: An excess of solid material was added to 5 ml of water and stirred overnight at room temperature. The solution was filtered and the filtrate analysed for EDDS content by HPLC. The solubility values given in table 4 refer to the amount of free EDDS or succinate ion present and ignore the mass of any associated counter ion.

[2] = Appearance of the materials observed periodically over 72 hours
Procedure: The appearance of each of the materials was observed periodically over 72 hours. The observations are recorded in table 2.

[3] = Increase in mass of the samples over time
From the text: Table 3 show how the samples increased in mass over time.

Row | EDDS content of a saturated solution solubility [1] [g/kg] | Appearance after 24 hr ([2]; after 24 hr) | Appearance after 48 hr [2] | Appearance after 72 hr [2] | Initial Appearance [2] | % increase in mass after 72 hr [3] [%] | Appearance after 24 hr ([2]; cell in the 24 hr column marked (2 hr)) | Structure (SMILES)
1 | 164.3 | Free flowing | Free flowing | Free flowing | Free flowing | 0.10 |  | O=C([O-])CC(NCCNC(CC(=O)[O-])C(=O)[O-])C(=O)[O-].[Mg+2].[Mg+2] (centres unmarked) [Example A]
2 | 10.1 | Slightly | Slightly | Slightly | Free flowing | 8.81 |  | O=C([O-])CC(NCCNC(CC(=O)[O-])C(=O)[O-])C(=O)[O-].[Ca+2].[Ca+2] (centres unmarked) [F]
3 |  |  | Very Sticky | Very Sticky | Free flowing | 25 | Sticky Solid | O=C1CCC(=O)ON2CCN(O1)OC(=O)CCC(=O)O2.[Na].[Na].[Na] [Na3EDDS, trisodium ethylenediamine disuccinate]

— US8377478B2, “Solid detergent composition” (Innospec Limited, priority 2007, dated 2013)
